Results published in patent US9629828B2, “Methods of treating traveler's diarrhea and hepatic encephalopathy” (priority 2008, dated 2017).

Experiments:
[1] = tested on: subjects with a history of recurrent, overt, episodic HE; assay: Second study (3002, open-label extension): breakthrough overt HE; type: in vivo, human
Method: Unlike the first study, subjects were not required to withdraw from the study after experiencing a breakthrough overt HE episode.
Conn scores and asterixis grades were assessed during the course of the study.
Therefore, the incidence of breakthrough overt HE over time during rifaximin therapy was evaluated. Table 24 presents breakthrough overt HE episodes by total number of HE episodes during the course of the study.
Most subjects in the second study (152 of 266) were also in the first study. […] The numbers of overt HE episodes experienced during the 6-month or 12-month intervals prior to the first study or prior to the second study were known.

patients with HE = settings: rifaximin 1200 mg/day, neomycin 3 g/day; cited from earlier work

CO[C@H]1/C=C/O[C@@]2(C)Oc3c(C)c(O)c4c(O)c(c5c(nc6cc(C)ccn65)c4c3C2=O)NC(=O)/C(C)=C\C=C\[C@H](C)[C@H](O)[C@@H](C)[C@@H](O)[C@@H](C)[C@H](OC(C)=O)[C@@H]1C [rifaximin, (2S,16Z,18E,20S,21S,22R,23R,24R,25 S,26S,27S,28E)-5,6,21,23,25-pentahydroxy-27-methoxy-2,4,11,16,20,22,24,26-octamethyl-2,7-(epoxypentadeca-[1,11,13]trienimino)benzofuro[4,5-e]pyrido[1,2-á]-benzimidazole-1,15(2H)-dione,25-acetate]
Subjects with ≧1 breakthrough overt HE episode ([1]; All Rifaximin N = 266): 72 (27.1) n (%) | Subjects with ≧1 breakthrough overt HE episode ([1]; Continuing Rifaximin N = 70): 18 (25.7) n (%) | Subjects with ≧1 breakthrough overt HE episode ([1]; New Rifaximin N = 196): 54 (27.6) n (%) | patients free of breakthrough ([1]; after almost 3 years): approximately 60% | subjects with 1 breakthrough HE episode ([1]; all rifaximin): 44 subjects | subjects with 2 breakthrough HE episodes ([1]; all rifaximin): 18 subjects | subjects with 3 or more breakthrough HE episodes ([1]; all rifaximin): Ten | reduction in risk of breakthrough HE, continuing subjects vs 3001 placebo ([1]; in vivo): 90% | subjects with breakthrough overt HE during rifaximin after crossover ([1]; in vivo): 15 of 82 | rate of breakthrough HE episodes adjusted for exposure ([1]; new rifaximin subjects): 0.38 events/PEY | subjects with >2 HE episodes during rifaximin therapy ([1]; up to 840 days, first plus second study): 3.6% | efficacy in patients with HE (patients with HE): comparable efficacy
